Assay results from PubChem BioAssay (NCI).
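GI50 is the concentration that inhibits growth by half. TGI: concentration producing complete growth inhibition.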

Tests used:
Test in all cases: NCI-60 cell line screen, 384-well format
SK-OV-3 ovarian = system: SK-OV-3 ovarian
NCI-H226 lung = system: NCI-H226 lung
OVCAR-3 ovarian = system: OVCAR-3 ovarian
MDA-MB-231 breast = system: MDA-MB-231 breast
HL-60(TB) leukemia = system: HL-60(TB) leukemia
HCC-2998 colon = system: HCC-2998 colon
DU-145 prostate = system: DU-145 prostate
UACC-257 melanoma = system: UACC-257 melanoma
NCI-H23 lung = system: NCI-H23 lung
BT-549 breast = system: BT-549 breast
OVCAR-4 ovarian = system: OVCAR-4 ovarian
786-0 renal = system: 786-0 renal
LOX IMVI melanoma = system: LOX IMVI melanoma

Q: With `Cn1cc(CNCC2CCN(c3ncc(C(=O)NO)cn3)CC2)c2ccccc21` as the molecule, how does the GI50 (SK-OV-3 ovarian) read?
A: Its GI50 is 15.5 nM.

Q: What about the TGI (SK-OV-3 ovarian) of the same molecule?
A: Its TGI is 32.9 nM.

Q: And the GI50 (NCI-H226 lung)?
A: Its GI50 is 31.9 nM.

Q: And the TGI (NCI-H226 lung)?
A: The TGI was 115 nM.

Q: And the GI50 (OVCAR-3 ovarian)?
A: Its GI50 is 12.2 nM.

Q: What about the TGI (OVCAR-3 ovarian) of the same molecule?
A: The TGI was 28.6 nM.

Q: What about the GI50 (MDA-MB-231 breast) of the same molecule?
A: The GI50 was 14.3 nM.

Q: And the TGI (MDA-MB-231 breast)?
A: The TGI was 37.2 nM.

Q: What about the GI50 (HL-60(TB) leukemia) of the same molecule?
A: Its GI50 is < 10 nM.

Q: And the TGI (HL-60(TB) leukemia)?
A: The TGI was < 10 nM.

Q: And the GI50 (HCC-2998 colon)?
A: Its GI50 is < 11.1 nM.

Q: What about the TGI (HCC-2998 colon) of the same molecule?
A: Its TGI is 24.8 nM.

Q: What about the GI50 (DU-145 prostate) of the same molecule?
A: The GI50 was < 10 nM.

Q: What about the TGI (DU-145 prostate) of the same molecule?
A: Its TGI is 22.9 nM.

Q: And the GI50 (UACC-257 melanoma)?
A: Its GI50 is < 10 nM.

Q: And the TGI (UACC-257 melanoma)?
A: Its TGI is 23.6 nM.

Q: And the GI50 (NCI-H23 lung)?
A: Its GI50 is 13.1 nM.

Q: What about the TGI (NCI-H23 lung) of the same molecule?
A: Its TGI is 42.1 nM.

Q: And the GI50 (BT-549 breast)?
A: Its GI50 is 21.6 nM.

Q: What about the TGI (BT-549 breast) of the same molecule?
A: Its TGI is 75.8 nM.

Q: What about the GI50 (OVCAR-4 ovarian) of the same molecule?
A: The GI50 was 18.9 nM.

Q: And the TGI (OVCAR-4 ovarian)?
A: Its TGI is 46.6 nM.

Q: And the GI50 (786-0 renal)?
A: Its GI50 is 22.8 nM.

Q: What about the TGI (786-0 renal) of the same molecule?
A: The TGI was 120 nM.

Q: And the GI50 (LOX IMVI melanoma)?
A: The GI50 was 12.1 nM.

Q: And the TGI (LOX IMVI melanoma)?
A: Its TGI is 24.9 nM.
